“Also recorded” adds a separate entry of the source. Where a SMILES comes first, the peptide text is derived from it.

Test [1] has as its system RSV G protein cleavage in Vero cells. The test can be described thus: Cleavage of mutant G proteins transiently expressed in Vero cells (immunoblot). The format is cell-based. The settings on record: for cleavage of G protein deletion mutants: 24 h post-transfection, vs wt G protein; for resistance to cleavage of alanine substitution G protein mutants: 24 hours post-transfection. The procedure:
The G gene in the region of amino acid 210 was modified by deleting stretches of amino acids in this region (200-211, 204-213, 206-215, 208-217, or 209-213). […] Most of the mutants almost completely ablate cleavage. They all share amino acids 208-211. However, A206-210 and A206-215, both of which bring together amino acids that can also serve as a cathepsin L cleavage site. For FIG. 6B, the mutated G protein genes were transiently expressed in Vero cells. 24 h post-transfection cells were harvested, lysed and proteins were separated by SDS-PAGE, blotted and probed with mAb to the G protein.
To identify which amino acids are important for cleavage, individual amino acids in and around this region were changed to alanine. These mutant G proteins were transiently expressed in Vero cells and assessed by immunoblot (FIG. 6C). For FIG. 6C, the mutated G protein genes were transiently expressed in Vero cells. 24 hours post-transfection cells were harvested, lysed and proteins were separated by SDS-PAGE, blotted and probed with mAb to the G protein.
The strain A2 G protein plasmid was mutagenized using synthetic double strand gBlock DNA (Integrated DNA Technologies). Van91I (Thermo Fisher) and Xho I (New England Biolabs) were used to digest plasmid and gBlock. Doubly-digested plasmid was isolated by agarose gel electrophoresis. Digested gBlock and eluted plasmid DNAs were ligated with T4 DNA ligase (Promega, Madison, Wis.), and transformed into One Shot MachI-T1 chemically competent bacteria (Life Technologies). Plasmids were extracted using HiSpeed or Plasmid Plus Maxi kits (Qiagen).
Wild type G or frG proteins were expressed in HeLa or Vero cells following plasmid transfection with FuGene HD (Promega) or Lipofectamine LTX (Life Technologies), respectively, in medium containing 2% FBS. In frG experiments, medium was collected and concentrated using Ultracel-10 K centrifugal filters (EMD Millipore, Billerica, Mass.). For other transfection experiments, Vero cells were transfected using Lipofectamine 3000 (Life Technologies) in medium containing 10% FBS. For all transfection experiments, cells were lysed and protein quantified by BCA assay. Equivalent HeLa or Vero cell lysate protein and equivalent volumes of concentrated proteins from the medium were analyzed by immunoblotting.
For orientation: In western blotting, separated proteins are transferred to a membrane and probed.

The test system is the same in test [2]. The test can be described thus: Cell-surface RSV G protein cleavage in rgRSV-infected cells treated with protease inhibitors (biotinylation, immunoblot with mAb L9). It is filed as cell-based. Conditions: 24 hpi. The method, then: To elucidate the class of protease responsible for G protein cleavage in Vero cells, cells were treated with increasing concentrations of protease inhibitors after inoculating with recombinant green fluorescent protein expressing RSV (rgRSV). Cells were incubated with rgRSV for 2 h with tipping at 37° C. before replacing inoculum with fresh cell culture medium. Drugs were added at different times post infection. In each case, uninfected, no drug, and vehicle (at the highest concentration used) were included in all experiments as controls. In all experiments at 24 hpi, cell surface proteins were biotinylated, cells lysed and equivalent amounts of protein from each sample were mixed with streptavidin beads.
Aprotinin, a serine protease inhibitor, leupeptin, a serine/cysteine protease inhibitor; or E-64, a cysteine protease inhibitor were added to the cell culture media (3.125 to 50 μg/ml) from 2-24 hpi. The most likely proteins to be incorporated into the virions are cell surface proteins, so the cell surfaced was biotinylated, proteins isolated from lysed cells with streptavidin beads, and immunobloted with L9, a mAb to the G protein, as a probe (FIG. 1A). In the untreated and vehicle treated samples most of the cell surface G protein was cleaved (˜55 kDa), leaving only a small portion of full length (˜90 kDa) G protein. […] Since both leupeptin and E64 block the activity of cysteine proteases, the protease responsible for cleavage of the G protein in Vero cells is a cysteine protease.
To narrow the field of cysteine proteases, cells were treated at 6 hpi with a more specific cysteine protease inhibitor, ALLM (0.1 to 100 μM).
RSV-infected HeLa and Vero cells were treated with a cathepsin B inhibitor, CA-074 (0.1 to 100 μM), or a cathepsin L inhibitor, cathepsin L inhibitor III (0.1 to 100 μM) 6 hpi.
Cathepsin L is a protease present primarily in the interior of the lysosome and is optimally active at acidic pH. Vero cells expressing the G protein were treated with chloroquine to raise the pH of the lysosome. […] To generate FIG. 4C, cells were inoculated with RSV or mock inoculated. 6 hpi the cells were treated with increasing concentrations of chloroquine. 24 hpi cells were biotinylated and G protein assayed
HeLa and Vero cells were rgRSV (MOI: 1) or mock inoculated. 2 hpi the inoculum was replaced with fresh complete medium, and 4 hpi cells the medium was changed again to complete medium with 2-fold dilutions of these protease inhibitors (Sigma-Aldrich, St. Louis, Mo.), dissolved in water: Aprotinin (3.125 to 50 μg/ml); Leupeptin (6.25 to 100 μg/ml); E-64 (6.25 to 100 μg/ml); or equal volumes of water in medium. In other experiments, cells were treated at 6 hpi with: 10-fold dilutions (0.1 to 100 μM) of: Cathepsin inhibitor I (Calbiochem); ALLM (Santa Cruz, Dallas, Tex.); Chloroquine diphosphate salt (Sigma Aldrich) or equivalent volumes of vehicle (water); CA-074 (Calbiochem); Cathepsin L inhibitor III (Calbiochem); or an equal volume of vehicle (DMSO) in medium.
At 24 hpi cells were biotinylated with Ez-link Sulfo-NHS-LC-Biotin (Thermo Fisher). Cells were lysed with lysis buffer containing 150 mM NaCl, 1% Triton X-100, 50 mM Tris, 0.1% SDS, and 1× Halt protease cocktail inhibitor (Thermo Fisher). Proteins were quantified using BCA protein assay kit (Pierce, Waltham, Mass.), and equal amounts of protein were added to high capacity streptavidin agarose beads (Thermo Fisher). The mixtures were rotated for 1 h at 4° C., the beads were pelleted and washed with lysis buffer (without protease cocktail inhibitor), NuPage LDS sample buffer was added, and boiled for 5 min, separated by NuPAGE Novex 4-12% bis-tris protein gels and transferred to nitrocellulose in an iBlot transfer stack, using the iBlot transferring system (Life Technologies) for immunoblot analysis. […]

The mark [3] stands for this setting: rgRSV-infected Vero cells, 6.24 to 100 μg/ml.

As for Δ206-210, in test [1], the “cleavage of G protein deletion mutants” value is recorded as “inhibit but do not abolished protein cleavage”. With Aprotinin, the “G protein cleavage (cell surface G protein)” value (from here on “G protein cleavage”) in test [2] (rgRSV-infected Vero cells, 3.125 to 50 μg/ml) is on record as “did not prevent G protein cleavage”. Take `CCCNC(=O)[C@H]1O[C@@H]1C(=O)N[C@H](C(=O)N1CCC[C@H]1C(=O)O)[C@@H](C)CC` [CA-074]: in test [2] (RSV-infected HeLa and Vero cells, 0.1 to 100 μM at 6 hpi), the “G protein cleavage” value is on record as “RSV G protein cleavage in the presence; also recorded: did not change this pattern”. As to “D214: RSV strain A2 G protein with alanine substitution at D214”, the “resistance to cleavage of alanine substitution G protein mutants” value (“resistance to cleavage” for short) in test [1] is given as “partially to nearly completely resistant to cleavage”. On to `CSCC[C@@H](C=O)NC(=O)[C@H](CC(C)C)NC(=O)[C@H](CC(C)C)NC(C)=O` [ALLM] (Ac-Leu-Leu-Met-aldehyde), for which the “G protein cleavage” value in test [2] (rgRSV-infected Vero cells, treated at 6 hpi, 0.1 to 100 μM) was “prevention of cleavage; also recorded: inhibited G protein cleavage”. With `CC(=O)N[C@@H](CC(C)C)C(=O)N[C@@H](CC(C)C)C(=O)N[C@H](C=O)CCCNC(=N)N` [leupeptin], the “G protein cleavage” value in test [2] (setting [3]) was “did, in a dose dependent manner”; in test [2] (rgRSV-infected Vero cells, 6.24 to 100 μg/ml, listed as Leupeptin), “prevention of cleavage”. “206-215: RSV G protein with amino acids 206-215 deleted”: the “cleavage of G protein deletion mutants” value in test [1] is reported as “cleaved less efficiently than the wt G protein”; in test [1] (listed as Δ206-215) it was “inhibit but do not abolished protein cleavage”. On to “K209: RSV strain A2 G protein with alanine substitution at K209”, for which, in test [1], the “efficiency at inhibiting cleavage (rank among alanine substitutions)” value is given as “second most efficient” and the “resistance to cleavage” value is listed as “partially to nearly completely resistant to cleavage”. As for “K212: RSV strain A2 G protein with alanine substitution at K212”, in test [1], the “resistance to cleavage” value is given as “partially to nearly completely resistant to cleavage”. In the case of `CCN(CC)CCCC(C)Nc1ccnc2cc(Cl)ccc12` (stereo not drawn) [chloroquine], the “G protein on the cell surface (cleaved vs full length)” value in test [2] (Vero cells, increasing concentrations of chloroquine from 6 hpi) is on record as “primarily full length G protein; also recorded: decreased cleavage”. For `CC(C)C[C@H](NC(=O)[C@H]1O[C@@H]1C(=O)O)C(=O)NCCCCN=C(N)N` [E64, E-64], the “G protein cleavage” value is on record as “did, in a dose dependent manner” in test [2] (setting [3]) and “prevention of cleavage” in test [2] (rgRSV-infected Vero cells, 6.24 to 100 μg/ml, listed as E-64).

The record behind these values is patent publication US10758607B2, “Respiratory syncytial virus having cleavage-resistant G protein and related materials and methods” (The Research Institute at Nationwide Children's Hospital, priority 2015, dated 2020).
